From patent publication US5382586A, “Aryl (or heteroaryl)piperazinylalkylazole derivatives, their preparation and their application as medicaments” (priority 1991, dated 1995)

Assays:
[1] = system: familiarisation process in mice; experiment: light box/dark box test: familiarisation process (improvement of cognition); type: in vivo, mouse
From the text: The influence of this product on the familiarisation process of mice in the light box/dark box test described by J. M. Barnes et al., (Pharmacol. Biochem. Behav., 1990, 35, 955-962) is studied. On the one hand, the effect on learning (the speed of familiarisation) and on the other hand the capacity for blocking contrary effects produced by escopolamine are studied.
The mouse is placed in the light zone of a box divided into two compartments, one brightly illuminated, the light box, and the other with little illumination, the dark box.
1) The number of times the mouse stands up on the hind paws in each compartment during a 5 minute period is counted (see Column 1 of the table below).
2) The activity in each compartment is given by counting the number of crossings through the squares which form the divisions of each compartment (see Column 2 of the table below).
3) The time passed in the dark box during the 5 minute counting period is determined (see Column 3 of the table below).
4) The initial latent period is determined, that is to say the time which elapses after the animal is placed in the light box, at the start of the test, before it enters the dark box (see Column 4 of the table below).
Two treatments with the vehicle are administered to the control animals per day. Two doses of 0.00001 ng/kg p.o. of compound 42 are administered per day to the animals treated with this product. The same operation is repeated daily for 5 days.
The animals learn to remain in the dark box for a longer period and to go into the box more rapidly.
On day six escopolamine (2×0.25 mg/kg, i.p.) is administered.
They recover the learned habit on day seven.

[2] = system: immobility of mice; experiment: desperate behaviour test (antidepressant activity); type: in vivo, mouse; conditions: 30 mg/kg, i.p.; p < 0.05; control 118 s
Method: The desperate behaviour test in mice, described by R. D. Porsolt et al. (Arch. Int. Pharmacodyn. 1977, 229, 327-336), is used.
The animals are placed for 6 minutes in a cylinder containing water, from which they are not able to escape. The period of immobility between minutes 2 and 5 is determined for groups of 10 mice per dosage tested.
The product studied is administered i.p. 1 hour before the test. In this test the immobility of the animals is explained as being produced by their depressed state resulting from being faced with an adverse and insoluble situation in a hostile environment such as water.
In our test imipramine (30 mg/kg; i.p.) was used as reference product.

[3] = day 6, after 2 treatments with escopolamine (0.25 mg/kg, i.p.), Example 42 at 0.00001 ng/kg p.o. twice per day

CN1C2CC(OC(=O)C(CO)c3ccccc3)CC1C1OC12 (stereo not drawn) [escopolamine, reference compound]
effect on the learned behaviour (control group) ([1]; 2×0.25 mg/kg, i.p., day six): the animals of the control group "forget" the learned behaviour | Activity within 5 min. period, dark (D) [1, 3]: 30 | Activity within 5 min. period, light (L) [1, 3]: 67 | Latent period L-D [1, 3]: 21 | No. of times standing erect within 5 min period, dark (D) [1, 3]: 38 | No. of times standing erect within 5 min period, light (L) [1, 3]: 59 | Time in the box, dark (D) [1, 3]: 27

NC(=O)CN1CCCC1=O [Piracetam, reference compound]
cognition-improving activity ([1]; mice): no activity

CN(C)CCCN1c2ccccc2CCc2ccccc21 [Imipramine, reference compound]
Period of immobility [2]: 71 s
